Measured values: publication PMC6397177, “An uncharacterized FMAG_01619 protein from Fusobacterium mortiferum ATCC 9817 demonstrates that some bacterial macrodomains can also act as poly-ADP-ribosylhydrolases” (Scientific Reports, 2019)

How the values were obtained:
hTARG1 = biological target: T1, hTARG1 (Homo sapiens, UniProt Q9Y530); assay: thermal shift assay, SYPRO Orange; format: binding; settings: 100 mM phosphate pH 7.0; ligand up to 50 mM
T1 construct: gene OARD1; synthetic gene in pET28a; E. coli Rosetta2(DE3); tag removal not clearly told
T1 sequence (Q9Y530 2-152): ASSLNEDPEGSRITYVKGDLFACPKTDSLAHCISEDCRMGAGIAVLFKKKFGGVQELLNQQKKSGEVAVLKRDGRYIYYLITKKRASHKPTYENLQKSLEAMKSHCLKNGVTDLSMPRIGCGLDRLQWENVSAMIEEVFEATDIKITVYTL

FmTARG1 [1] = biological target: T2, FmTARG1 (Fusobacterium mortiferum, UniProt A0ABN5JAQ3); assay: thermal shift assay, SYPRO Orange; format: binding; settings: 100 mM phosphate pH 7.0; ligand up to 50 mM
T2 construct: gene C4N19_10685; synthetic gene in pSol-AFV, AFV-tag removed with TEV protease; expressed in E. coli 10G
T2 sequence (A0ABN5JAQ3 2-142 limits assumed): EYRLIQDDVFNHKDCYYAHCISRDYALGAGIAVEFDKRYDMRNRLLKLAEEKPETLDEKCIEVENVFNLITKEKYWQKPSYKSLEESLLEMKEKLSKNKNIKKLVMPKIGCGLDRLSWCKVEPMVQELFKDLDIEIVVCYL

FmTARG1 [2] = biological target: T2, FmTARG1; assay: HPLC deacetylation assay; format: biochemical; settings: competitive against OAADPr; Bis-Tris pH 7.3, 300 mM NaCl, 25 °C

SMILES | dTm (hTARG1) | dTm (FmTARG1 [1]) | Ki (FmTARG1 [2]) [µM]
Nc1ncnc2c1ncn2[C@@H]1O[C@H](COP(=O)(O)OP(=O)(O)O)[C@@H](O)[C@H]1O [ADP] | AMP and ADP, also bind to both enzymes in a dose-dependent manner | AMP and ADP, also bind to both enzymes in a dose-dependent manner | –
Nc1ncnc2c1ncn2[C@@H]1O[C@H](COP(=O)(O)OP(=O)(O)OC[C@H]2OC(O)[C@H](O)[C@@H]2O)[C@@H](O)[C@H]1O (some centres unmarked) [ADPr] | – | – | 203 ± 10
Nc1ncnc2c1ncn2[C@@H]1O[C@H](COP(=O)(O)O)[C@@H](O)[C@H]1O [AMP] | AMP and ADP, also bind to both enzymes in a dose-dependent manner | AMP and ADP, also bind to both enzymes in a dose-dependent manner | –
